This is an account of results in patent US20070004686A1, “Attractant for apple fruit moth and other insect pests of apple” (priority 2002, published 2007).

The structures appear in SMILES notation. Entries after “also recorded” stand apart in the source; their conditions may differ.

Holding throughout (type): in vivo
In assay [1] the test system is apple fruit moth Argyresthia conjugella. Put plainly: Field trap attraction of apple fruit moth. The following applies: for relative attractiveness for apple fruit moth among compounds and blends tested: field traps, 10 mg on red rubber septa, males and females; for attraction of apple fruit moth females and males to field traps compared with blank: single compounds, 10 mg on red rubber septa in Tetra traps with sticky bottoms. The procedure: (§1) The compounds eliciting a strong response from antennae of female apple fruit moth and codling moth were then all tested in field traps for attraction of insects. Compounds were applied at a standard dose of 10 mg on red rubber septa, the septa were mounted in Tetra traps with sticky bottoms (Arm et al. 1979).
Furthermore, 2-phenyl ethanol was tested in a series of 2-component blends, including all compounds which had shown some attractiveness by themselves.
(§2) Its attractivity can be augmented by blending it with anethole. […] Both sexes of Argyresthia conjugella were attracted. Attraction of females is of importance for monitoring the migration of mated females into orchards. Attraction of females enables population control by mass-trapping, by an attracticide formulation, or by disruption of mating and oviposition behaviour.

Another assay has as its system other insects. Nature of the assay: Field trapping experiment, species specificity (other insects). The conditions noted are these: conditions tested (region, time of season). As to the method:
as §1, §2
Attraction of Argyresthia conjugella to 2-phenyl ethanol has not been reported, and the blend of 2-phenyl ethanol and anethole has not been described to be attractive for any other species.

The subject of assay [2] is codling moth Cydia pomonella. Put plainly: Field trap attraction of codling moth. The conditions noted are these: traps baited with 10 mg. The procedure: as §1
In a wind tunnel experiment, a blend of farnesol and (E)-beta-farnesene released at 10 ng/min attracted within 2 min 35% of the males tested to the source (N=60).

Consider `OCCc1ccccc1` [2-phenyl ethanol, 2-Phenyl ethanol], for which, in assay [1], the “relative attractiveness for apple fruit moth among compounds and blends tested” value is “single most attractive compound”; the “attraction of apple fruit moth females and males to field traps compared with blank” value (“attraction … compared with blank” for short) was “numbers significantly different from blank; also recorded: attractant for both males and females”. Besides, the “attraction of insects other than Argyresthia conjugella (species specificity)” value in the assay on other insects was “no other insects were attracted in significant numbers”.
As to `CC/C=C\CCOC(=O)C(C)CC` (stereo not drawn) [(Z)3-hexenyl 2-methylbutanoate], the “attraction of codling moth males to baited traps” value (shortened to “attraction of codling moth males”) in assay [2] is given as “attracted in significant numbers”.
As to `CC=Cc1ccc(OC)cc1` [anethole, Anethole], the “relative attractiveness for apple fruit moth among compounds and blends tested” value in assay [1] (listed as Anethole) is “only a weak attractant”. Also, the “attraction … compared with blank” value in assay [1] is listed as “numbers significantly different from blank”. Moreover, the “attraction of codling moth males” value in assay [2] is listed as “attracted in significant numbers”.
On to `CC/C=C\CC1=C(C)CCC1=O` [cis-jasmone], for which the “attraction of codling moth males” value in assay [2] is reported as “attracted in significant numbers”.
As to `CC(C)=CCCC(C)=CCCC(C)=CCO` [farnesol, Farnesol], in assay [2], the “attraction of codling moth males” value is reported as “attracted in significant numbers”.
With `C=CC(C)(O)CCC=C(C)C` (stereo not drawn) [linalool, Linalool], the “attraction … compared with blank” value in assay [1] is “numbers significantly different from blank”.
`COc1ccc(C=O)cc1` [p-anisaldehyde, P-Anisaldehyde]: the “attraction … compared with blank” value in assay [1] is “numbers significantly different from blank”. Besides, the “attraction of codling moth males” value in assay [2] was “attracted in significant numbers”.
